Read-outs that look alike come from different tables or passages of the source.
Columns and labels:
SARS-CoV-2 3CLpro = SARS-CoV-2 3CLpro (Severe acute respiratory syndrome coronavirus 2 (2019-nCoV) (SARS-CoV-2), UniProt P0DTD1); assay: SARS-CoV-2 3CLpro enzyme inhibition assay; assay type: biochemical
SARS-CoV-2 = assay: microbe, parasite or virus in culture; assay type: cell-based; conditions: Severe acute respiratory syndrome coronavirus 2; read-out: Antiviral EC50 Data
[1] = SARS-CoV-2 3CLpro, 10 minutes pre-incubation of enzyme with compound, read-out: Enzyme IC50 Data

`CCCN(CCC)[C@@H]1C[C@@H](C(=O)NC(C#N)C[C@@H]2CCNC2=O)N(C(=O)[C@@H](NC(=O)OC(C)(C)C)C(C)(C)C)C1` (some centres unmarked) gave an IC50 (SARS-CoV-2 3CLpro; [1]) greater than 100 µM and an EC50 (SARS-CoV-2) of 5 to 50 µM.
Work on `CC(C)(C)NC(=O)N[C@H](C(=O)N1C[C@H](N2CCOCC2)C[C@H]1C(=O)N[C@@H](C[C@H]1CCNC1=O)C(=O)c1nc2ccccc2s1)C(C)(C)C` yielded an IC50 (SARS-CoV-2 3CLpro; [1]) of 0.1 to 5 µM.
In the case of `CC(C)(C)[C@H](NC(=O)NCc1ccncc1)C(=O)N1C[C@H]2[C@@H]([C@H]1C(=O)N[C@@H](C[C@@H]1CCNC1=O)C(=O)c1nc(-c3ccccc3)cs1)C2(C)C`, the IC50 (SARS-CoV-2 3CLpro; [1]) is reported as 0.1 to 5 µM.
`CCCO[C@@H]1C[C@@H](C(=O)NC(C#N)C[C@@H]2CCNC2=O)N(C(=O)[C@@H](NC(=O)NC(C)(C)C)C(C)(C)C)C1` (some centres unmarked) was tested, and the IC50 (SARS-CoV-2 3CLpro) was 50 to 100 µM and the EC50 (SARS-CoV-2) was greater than 100 µM.
In the case of `CN(C)[C@@H]1C[C@@H](C(=O)N[C@@H](C[C@@H]2CCNC2=O)C(=O)c2nc(-c3ccccc3)cs2)N(C(=O)[C@@H](NC(=O)NC(C)(C)C)C(C)(C)C)C1`, the IC50 (SARS-CoV-2 3CLpro; [1]) is reported as 0.1 to 5 µM.
`CCCC(=O)N[C@@H]1C[C@@H](C(=O)N[C@@H](C[C@H]2CCNC2=O)C(=O)c2nc3ccccc3s2)N(C(=O)[C@@H](NC(=O)NC(C)(C)C)C(C)(C)C)C1` was tested, and the IC50 (SARS-CoV-2 3CLpro) was 0.1 to 5 µM and the EC50 (SARS-CoV-2) was greater than 100 µM.
In the case of `CCCC(=O)N[C@@H]1C[C@@H](C(=O)N[C@@H](C[C@H]2CCNC2=O)C(=O)c2nc3ccccc3s2)N(C(=O)[C@@H](NC(=O)OC(C)(C)C)C(C)(C)C)C1`, the IC50 (SARS-CoV-2 3CLpro) is reported as 0.1 to 5 µM and the EC50 (SARS-CoV-2) is reported as greater than 100 µM.
With `CC(C)(C)NC(=O)N[C@H](C(=O)N1C[C@H]2[C@@H]([C@H]1C(=O)N[C@@H](C[C@@H]1CCNC1=O)C(=O)C(=O)NCc1ccccc1)C2(C)C)C(C)(C)C` the IC50 (SARS-CoV-2 3CLpro) was 50 to 100 µM and the EC50 (SARS-CoV-2) was greater than 100 µM.
Molecule `CC(C)(C)NC(=O)N[C@H](C(=O)N1C[C@H]2[C@@H]([C@H]1C(=O)NC(C#N)C[C@@H]1CCNC1=O)C2(C)C)C(C)(C)C` (some centres unmarked) has an EC50 (SARS-CoV-2) greater than 100 µM.
`CC(C)(C)[C@H](NC(=O)c1ccccc1)C(=O)N1C[C@H]2[C@@H]([C@H]1C(=O)N[C@H](C#N)C[C@@H]1CCNC1=O)C2(C)C` gave an EC50 (SARS-CoV-2) of 50 to 100 µM.
For `CCN(CC)[C@@H]1C[C@@H](C(=O)N[C@@H](C[C@@H]2CCNC2=O)C(=O)c2nc(-c3ccccc3)cs2)N(C(=O)[C@@H](NC(=O)NC(C)(C)C)C(C)(C)C)C1`, the IC50 (SARS-CoV-2 3CLpro; [1]) was 0.1 to 5 µM.
`CCCO[C@@H]1C[C@@H](C(=O)N[C@@H](C[C@@H]2CCNC2=O)C(=O)c2nc3ccccc3s2)N(C(=O)[C@@H](NC(=O)OC(C)(C)C)C(C)(C)C)C1` [drawing 100] was tested, and the IC50 (SARS-CoV-2 3CLpro; read-out: Enzyme IC50 Data, SARS-CoV-2 3CLpro, 10 minutes pre-incubation of enzyme with compound) was 0.1 to 5 µM.
With `CC(=O)OC(C#N)[C@H](CC1CCCNC1=O)NC(=O)[C@@H]1[C@@H]2[C@H](CN1C(=O)C(NC(=O)NC(C)(C)C)C(C)(C)C)C2(C)C` (some centres unmarked) the EC50 (SARS-CoV-2) was greater than 100 µM.
With `CCCN(CCC)[C@@H]1C[C@@H](C(=O)NC(C#N)C[C@@H]2CCNC2=O)N(C(=O)[C@@H](NC(=O)C(F)(F)F)C(C)(C)C)C1` (some centres unmarked) the IC50 (SARS-CoV-2 3CLpro) was greater than 100 µM and the EC50 (SARS-CoV-2) was greater than 100 µM.
With `CCCN(CCC)[C@@H]1C[C@@H](C(=O)N[C@@H](C[C@H]2CCNC2=O)C(=O)c2nc3ccccc3s2)N(C(=O)[C@@H](NC(=O)OC(C)(C)C)C(C)(C)C)C1` the IC50 (SARS-CoV-2 3CLpro) was 0.1 to 5 µM and the EC50 (SARS-CoV-2) was 5 to 50 µM.
In the case of `CC(C)(C)NC(=O)N[C@H](C(=O)N1C[C@H]2[C@@H]([C@H]1C(=O)N[C@@H](C[C@@H]1CCNC1=O)C(=O)c1nc(-c3ccccc3)co1)C2(C)C)C(C)(C)C`, the IC50 (SARS-CoV-2 3CLpro; [1]) is reported as 50 to 100 µM.
In the case of `CCCN(CCC)[C@@H]1C[C@@H](C(=O)N[C@@H](C[C@H]2CCNC2=O)C(=O)c2nc3ccccc3s2)N(C(=O)[C@@H](NC(=O)NC(C)(C)C)C(C)(C)C)C1`, the IC50 (SARS-CoV-2 3CLpro; [1]) is reported as greater than 100 µM and the EC50 (SARS-CoV-2) is reported as 5 to 50 µM.
`CC(C)(C)NC(=O)N[C@H](C(=O)N1C[C@H]2[C@@H]([C@H]1C(=O)N[C@@H](C[C@@H]1CCNC1=O)C(=O)c1nc3ccccc3s1)C2(C)C)C(C)(C)C` was tested, and the IC50 (SARS-CoV-2 3CLpro) was 50 to 100 µM and the EC50 (SARS-CoV-2) was 5 to 50 µM.
`CCCO[C@@H]1C[C@@H](C(=O)N[C@@H](C[C@@H]2CCNC2=O)C(=O)c2nc3ccccc3s2)N(C(=O)[C@@H](NC(=O)NC(C)(C)C)C(C)(C)C)C1` was tested, and the IC50 (SARS-CoV-2 3CLpro) was 0.1 to 5 µM and the EC50 (SARS-CoV-2) was 50 to 100 µM.
Work on `CC(C)(C)NC(=O)N[C@H](C(=O)N1C[C@H](N2CCCC2)C[C@H]1C(=O)N[C@@H](C[C@H]1CCNC1=O)C(=O)c1nc2ccccc2s1)C(C)(C)C` yielded an IC50 (SARS-CoV-2 3CLpro) of 5 to 50 µM and an EC50 (SARS-CoV-2) greater than 100 µM.
Work on `CC(C)(C)NC(=O)N[C@H](C(=O)N1C[C@H]2[C@@H]([C@H]1C(=O)N[C@@H](C[C@@H]1CCNC1=O)C(=O)c1nc(-c3ccccc3)cs1)C2(C)C)C(C)(C)C` yielded an IC50 (SARS-CoV-2 3CLpro) of 5 to 50 µM and an EC50 (SARS-CoV-2) of 5 to 50 µM.
Work on `CC(C)(C)NC(=O)N[C@H](C(=O)N1C[C@H]2[C@@H]([C@H]1C(=O)N[C@@H](C[C@@H]1CCNC1=O)C(=O)C(N)=O)C2(C)C)C(C)(C)C` yielded an EC50 (SARS-CoV-2) greater than 100 µM.
In the case of `CCCO[C@@H]1C[C@@H](C(=O)N[C@@H](C[C@@H]2CCNC2=O)C(=O)c2nc(-c3ccccc3)cs2)N(C(=O)[C@@H](NC(=O)NC(C)(C)C)C(C)(C)C)C1`, the IC50 (SARS-CoV-2 3CLpro; [1]) is reported as greater than 100 µM and the EC50 (SARS-CoV-2) is reported as 5 to 50 µM.
`CCCO[C@@H]1C[C@@H](C(=O)N[C@@H](C[C@@H]2CCNC2=O)C(=O)c2nc3ccccc3s2)N(C(=O)[C@@H](NC(=O)OC(C)(C)C)C(C)(C)C)C1` [drawing 99] was tested, and the IC50 (SARS-CoV-2 3CLpro) was 0.1 to 5 µM and the EC50 (SARS-CoV-2) was 0.1 to 5 µM.
In the case of `CCCN(CCC)[C@@H]1C[C@@H](C(=O)N[C@@H](C[C@H]2CCNC2=O)C(=O)c2nc(-c3ccccc3)cs2)N(C(=O)[C@@H](NC(=O)NC(C)(C)C)C(C)(C)C)C1`, the IC50 (SARS-CoV-2 3CLpro; [1]) is reported as 0.1 to 5 µM.
In the case of `CCCO[C@@H]1C[C@@H](C(=O)N[C@@H](CC2CCNC2=O)C(=O)c2nc3ccccc3s2)N(C(=O)C(NC(=O)NC(C)(C)C)C(C)C)C1` (some centres unmarked), the IC50 (SARS-CoV-2 3CLpro) is reported as 0.1 to 5 µM and the EC50 (SARS-CoV-2) is reported as 50 to 100 µM.

From patent US20240043417A1, “COMPOUNDS FOR THE TREATMENT OF SARS” (Purdue Research Foundation, priority 2020, published 2024)
